These results are taken from patent US9221861B2, “Multivalent [beta]-1-2-linked mannose oligosaccharides as immunostimulatory compounds and uses thereof” (ABO AKADEMI UNIVERSITY, priority 2011, dated 2015).

“Also recorded” adds a separate entry of the source.

Holding throughout (assay type): cell-based, human
Experiment [1] relates to allergen (birch) stimulated PBMC culture. Put plainly: Effect on allergen (birch) induced IL-5 production in PBMC culture (Example 2). The settings on record: PBMC of four birch allergic rhinitis patients; birch extract 50 µg/ml; CM-C8-2010 20 µg/ml; 72 hours (FIG. 6). The protocol:
(§1) The human PBMC were isolated from heparinized blood samples with Ficoll (Ficoll-Paque, Amersham Pharmacia Biotech, Sweden) density gradient centrifugation. The PBMC were washed twice with Hanks' balanced salt solution (HBSS) and suspended in RPMI medium supplemented 5% autologous serum, 2 mM L-glutamine (Fluka Biochemica, Germany) and 100 µg/ml gentamycin (Biological Industries, Israel). The cell suspension was diluted in the RPMI-based culture medium to 10^6 cells/ml and applied on 48-well culture plates (Costar, Cambridge, Mass., USA).
Trivalent acetylated monosaccharide coded CM-C4-2011 was used as a negative control. The PBMC were isolated and cultured as described above. Birch whole allergen extract was used at a concentration of 50 µg/ml and CM-C8-2010 at a concentration of 20 µg/ml. The cultures were incubated for 72 hours. Following stimulation, the production of IL-5 was measured with LINCOplex™-kits using Luminex100™ instrumentation.

Experiment [2] concerns peripheral blood mononuclear cells (PBMC). Put plainly: Induction of cytokines by synthetic β-1,2-linked mannooligosaccharide compounds in PBMC (Example 1). The conditions noted are these: PBMC of three atopic subjects, 72 h, 20 and 200 μg/ml (FIG. 5), LINCOplex/Luminex. How it is done:
as §1
The synthetic oligosaccharides were tested for the production of cytokines IL-4, IL-5, IL-10 and IFN-γ, in peripheral blood mononuclear cells (PBMC) samples of three atopic subjects. The PBMC were stimulated by adding solubilized oligosaccharides in cell culture suspension. The synthetic polyvalent β-1,2-linked oligosaccharides used in this example are a molecule according to the compound of formula (IV) of the invention (coded CM-C8-2010), trivalent monosaccharide (R═H) coded CM-C4-2010 and pentavalent disaccharide (R═O) coded CM-C7-2010. The cytokine responses from PBMC were detected 72 h after beginning of the stimulation by measuring cytokine secretion with high-sensitivity human cytokine LINCOplex™-kits (LINCO Research, St. Charles, Mo., USA) using Luminex^100™ instrumentation. The assays were performed in accordance with the manufacturer's protocol by employing Luminex technology.

The subject of experiment [3] is allergen (birch) stimulated PBMC culture. Kind of experiment: Comparison with prior art adjuvants in suppression of birch allergen-induced IL-4, IL-5 and IL-13 in PBMC (Example 3). The conditions noted are these: 24 hours; for Mean (SD) percentage of Birch induced cytokine response, IL-5: 15 subjects; for Mean (SD) percentage of Birch induced cytokine response, IL-13: 17 subjects; for Mean (SD) percentage of Birch induced cytokine response, IL-4: 19 subjects. How it is done:
as §1
The effect of synthetic molecule according to the compound of formula (IV) of the invention coded CM-C8-2010 on the production of IL-4, IL-5 and IL-13, the main Th2-type cytokines promoting allergic inflammation, was studied in an allergen (birch) stimulated PBMC culture of 26 birch allergic patients with allergic rhinitis. The effect was compared to that of 3-deacylated monophosphoryl lipid A (MPL), the non-toxic derivative of lipopolysaccharide of Salmonella minnesota (LPS), and immunostimulatory bacterial DNA sequence (CpG-ODN-1). These molecules have been clinically successfully tested as adjuvants in allergen immunotherapy. Another bacterial DNA sequence (CpG-ODN-2) without immunostimulatory activity was used as a negative control. The PBMC were collected during a strong birch pollen season, were isolated and cultured as described above. Birch whole allergen extract was used at a concentration of 50 µg/ml and CM-C8-2010 at concentrations 200 and 20 µg/ml. CpG-ODN-1 and CpG-ODN-2 were used at a concentration 5 µg/ml and MPL at a concentration 10 µg/ml based on earlier published experiments. The cultures were incubated for 24 hours. Following stimulation, the productions of IL-4, IL-5 and IL-13 were measured with LINCOplex™-kits using Luminex100™ instrumentation. For analysis only the cultures with strong induced cytokine responses were included.

Experiment [4] has as its system peripheral blood mononuclear cells (PBMC). Kind of experiment: Induction of cytokines by synthetic oligosaccharide RP-I-82 in PBMC (Example 4). The conditions noted are these: PBMC of three subjects, 24 hours. The protocol: as §1
The synthetic oligosaccharide coded RP-I-82 was tested for the production of cytokines IL-4, IL-5, IL-10, IL-13, TNF and IFN-γ, in peripheral blood mononuclear cells (PBMC) samples of three subjects. The PBMC were stimulated by adding solubilized oligosaccharide in cell culture suspension. The synthetic oligovalent 3-1,2-linked oligosaccharide used in this example was a molecule according to the compound of formula (IV) of the invention (coded RP-I-82). A positive control was acid hydrolyzed Candida albicans mannan (CAM). The cytokine responses from PBMC were detected 24 hours after beginning of the stimulation by measuring cytokine secretion with high-sensitivity human cytokine LINCOplex™-kits (LINCO Research, St. Charles, Mo., USA) using Luminex^100™ instrumentation. The assays were performed in accordance with the manufacturer's protocol by employing Luminex technology.

Setting [5] is: PBMC of birch allergic patients.

For `CC(=O)OCC1O[C@@H](OC2C(OC(C)=O)[C@H](OC(C)=O)C(COC(C)=O)O[C@@H]2OCCn2cc(COCC(COCc3cn(CCO[C@H]4OC(COC(C)=O)[C@@H](OC(C)=O)C(OC(C)=O)C4O[C@@H]4OC(COC(C)=O)[C@@H](OC(C)=O)C(OC(C)=O)C4OC(C)=O)nn3)OCc3cn(CCO[C@H]4OC(COC(C)=O)[C@@H](OC(C)=O)C(OC(C)=O)C4O[C@@H]4OC(COC(C)=O)[C@@H](OC(C)=O)C(OC(C)=O)C4OC(C)=O)nn3)nn2)C(OC(C)=O)C(OC(C)=O)[C@@H]1OC(C)=O` (stereo partly drawn) [CM-C8-2010, 1,2,3-tris[1-[(2,3,4,6-tetra-O-acetyl-β-D-mannopyranosyl)-(1→2)-(3,4,6-tri-O-acetyl-α-D-mannopyranosyloxyethyl)]-4-[methyl-1-oxy]triazolyl]propane], the “suppression of birch allergen induced IL-5 response” value in experiment [1] is on record as “effectively suppressed”. Also, in experiment [2], the “production of IFN-γ (inducer strength)” value is given as “strong inducer” and the “production of IL-10 (inducer strength)” value was “strong inducer”. In experiment [2] (listed as formula (IV)), the “production of IFN-γ (inducer strength)” value was “most active substance” and the “production of IL-10 (inducer strength)” value is “most active substance”. Also, in experiment [3] (20 μg/ml), the “Mean (SD) percentage of Birch induced cytokine response, IL-5” value is reported as 86.0 (25.9) %; the “Mean (SD) percentage of Birch induced cytokine response, IL-13” value is 85.9 (97.5) %; the “Mean (SD) percentage of Birch induced cytokine response, IL-4” value was 90.8 (22.7) %. In addition, in experiment [3] (200 μg/ml), the “Mean (SD) percentage of Birch induced cytokine response, IL-5” value is given as 70.6 (22.6) %; the “Mean (SD) percentage of Birch induced cytokine response, IL-13” value is 58.5 (48.0) %; the “Mean (SD) percentage of Birch induced cytokine response, IL-4” value was 78.6 (24.3) %. Further, in experiment [3] (setting [5]), the “suppression of birch allergen induced IL-4 response (in words)” value was “more effectively than CpG-ODN-1 or MPL”, the “suppression of birch allergen induced IL-5 response (in words)” value is on record as “more effectively than CpG-ODN-1 or MPL” and the “suppression of birch allergen induced IL-13 response (in words)” value is “more effectively than CpG-ODN-1 or MPL”.
Regarding `CC(=O)OC[C@H]1O[C@@H](O[C@@H]2[C@@H](OCCCn3cc(COCC(COCc4cn(CCCO[C@H]5O[C@H](COC(C)=O)[C@@H](OC(C)=O)[C@H](OC(C)=O)[C@@H]5O[C@@H]5O[C@H](COC(C)=O)[C@@H](OC(C)=O)[C@H](OC(C)=O)[C@@H]5OC(C)=O)nn4)OCc4cn(CCCO[C@H]5O[C@H](COC(C)=O)[C@@H](OC(C)=O)[C@H](OC(C)=O)[C@@H]5O[C@@H]5O[C@H](COC(C)=O)[C@@H](OC(C)=O)[C@H](OC(C)=O)[C@@H]5OC(C)=O)nn4)nn3)O[C@H](COC(C)=O)[C@@H](OC(C)=O)[C@@H]2OC(C)=O)[C@@H](OC(C)=O)[C@@H](OC(C)=O)[C@@H]1OC(C)=O` (stereo partly drawn) [RP-I-82, 1,2,3-tris[1-[(2,3,4,6-tetra-O-acetyl-β-D-mannopyranosyl)-(1→2)-(3,4,6-tri-O-acetyl-α-D-mannopyranosyloxypropyl)]-4-[methyl-1-oxy]triazolyl]propane], in experiment [4] (20 μg/ml), the “Production of cytokines, mean (SD), IFN-γ” value is 10 (15) pg/ml; the “Production of cytokines, mean (SD), IL-4” value was 2.6 (0.8) pg/ml; the “Production of cytokines, mean (SD), IL-5” value is 0.1 (0.2) pg/ml; the “Production of cytokines, mean (SD), IL-10” value is 110 (109) pg/ml. Besides, in experiment [4] (20 μg/ml), the “Production of cytokines, mean (SD), IL-13” value was 0.6 (0.2) pg/ml and the “Production of cytokines, mean (SD), TNF” value is given as 52 (26) pg/ml. In experiment [4] (200 μg/ml), the “Production of cytokines, mean (SD), IFN-γ” value was 18 (25) pg/ml; the “Production of cytokines, mean (SD), IL-4” value is 2.7 (0.2) pg/ml; the “Production of cytokines, mean (SD), IL-5” value was 0.2 (0.2) pg/ml; the “Production of cytokines, mean (SD), IL-10” value is 843 (253) pg/ml. In experiment [4] (200 μg/ml), the “Production of cytokines, mean (SD), IL-13” value is 0.5 (0.0) pg/ml and the “Production of cytokines, mean (SD), TNF” value was 295 (146) pg/ml. Also, in experiment [4], the “IFN-γ production, inducer strength (in words)” value is reported as “moderate inducer”; the “IL-4 production (in words)” value is “not seen at all”; the “IL-5 production (in words)” value is on record as “not seen at all”; the “IL-10 production, inducer strength (in words)” value is recorded as “strong inducer; also recorded: considerably higher than for the control”. Moreover, in experiment [4], the “IL-13 production (in words)” value is reported as “not seen at all”; the “TNF production, inducer strength (in words)” value is “strong inducer; also recorded: considerably higher than for the control”; the “pattern of cytokine induction in comparison to the blank sample (no stimulation)” value is reported as “selective induction”.
